{
  "source": "BindingDB's records for doi:10.1021/jm1012193",
  "about": "(University of Bonn, 2012)",
  "molecular_target": "T1, P2X purinoceptor 2 (Rattus norvegicus, UniProt P49653)",
  "T1 sequence (P49653 whole entry)": "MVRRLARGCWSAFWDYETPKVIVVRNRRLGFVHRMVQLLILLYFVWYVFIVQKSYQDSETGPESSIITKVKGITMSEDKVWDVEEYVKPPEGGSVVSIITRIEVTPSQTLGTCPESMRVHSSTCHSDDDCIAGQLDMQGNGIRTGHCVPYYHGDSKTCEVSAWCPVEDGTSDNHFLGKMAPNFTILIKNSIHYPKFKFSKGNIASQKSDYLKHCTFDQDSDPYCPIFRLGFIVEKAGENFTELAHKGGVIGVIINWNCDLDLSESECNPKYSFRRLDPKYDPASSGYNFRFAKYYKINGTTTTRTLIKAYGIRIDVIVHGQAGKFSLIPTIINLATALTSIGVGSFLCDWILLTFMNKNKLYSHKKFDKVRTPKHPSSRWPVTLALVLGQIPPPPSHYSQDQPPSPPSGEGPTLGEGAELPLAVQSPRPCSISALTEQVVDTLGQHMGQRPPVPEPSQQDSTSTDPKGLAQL",
  "experiment": "Antagonist activity against rat […] receptor expressed in Xenopus laevis oocyte assessed as inhibition of alpha, beta-meATP-induced inward current by two-electrode voltage-clamp electrophysiology",
  "data": [
    {"smiles": "Nc1ncnc2c1ncn2C1OC(COP(=O)(O)OP(=O)(O)OP(=O)(O)O)C2OC3(OC21)C([N+](=O)[O-])=CC([N+](=O)[O-])=CC3=[N+]([O-])[O-]", "note": "(stereo not drawn) [sodium(3a'R,4'R,6'R,6a'R)-4'-(6-amino-9H-purin-9-yl)-2,6-dinitro-6'-((oxido(oxido(phosphonatooxy)phosphoryloxy)phosphoryloxy)methyl)-3a',4',6',6a'-tetrahydrospiro[cyclohexa[2,5]diene-1,2'-furo[3,4-d][1,3]dioxole]-4-ylideneazinate]", "values": [
      {"measurement": "IC50", "result": 4, "unit": "µM"}
    ]}
  ]
}
